Experimental findings from ChEMBL document CHEMBL1125575, “2-[(2-pyridylmethyl)sulfinyl]-1H-thieno[3,4-d]imidazoles. A novel class of gastric H+/K(+)-ATPase inhibitors” (J Med Chem, 1992) are described below.

The nature of one experiment: animal or person. The conditions noted are these: Canis lupus familiaris, Stomach, iv, read-out: Inhibition.
The species entered for the next experiment is Oryctolagus cuniculus. As to the kind of experiment: cells. It is filed as functional, organism-based, Stomach.
The species entered for another experiment is Rattus norvegicus. As to the kind of experiment: animal or person. The following applies: Stomach, iv, read-out: Inhibition.
The species named for another experiment is Canis familiaris. The experiment in a line: animal or person. The following applies: Canis lupus familiaris, Stomach, intraduodenal, read-out: Inhibition.

pIC50: −log10 of the molar value.

Description for Oryctolagus cuniculus: In vitro inhibition of 14C amino-pyrine uptake was determined in isolated rabbit gastric glands after dbcAMP stimulation

As to `COc1ccnc(C[S+]([O-])c2nc3c(C)sc(C)c3[nH]2)c1` (configuration not stated), the inhibition in vivo at 0.3 mg/kg in the experiment “animal or person” worked out at 66%. Also, the pIC50 (in general, the IC50 on a negative log10 scale, so that one unit is a factor of ten) in the experiment listed under Oryctolagus cuniculus (Stomach) is 4.92.
On to `[O-][S+](Cc1nccc(OCC(F)(F)C(F)(F)F)c1Cl)c1nc2cscc2[nH]1` (configuration not stated), for which the pIC50 in the experiment filed under Oryctolagus cuniculus (Stomach) was 5.00.
For the molecule `[O-][S+](Cc1cc(OCC(F)(F)C(F)(F)F)ccn1)c1nc2cscc2[nH]1` (configuration not stated), in the experiment listed under Rattus norvegicus, the inhibition in vivo at 0.5 mg/kg turned out to be 81%. This molecule had a pIC50 in the experiment listed under Oryctolagus cuniculus (Stomach) of 6.00.
Regarding `Cc1sc(C)c2[nH]c([S+]([O-])Cc3ccccn3)nc12` (configuration not stated), in the experiment listed under Oryctolagus cuniculus (Stomach), the pIC50 is 4.82.
In the experiment listed under Oryctolagus cuniculus (Stomach), `COc1ccnc(C[S+]([O-])c2nc3cscc3[nH]2)c1C` (configuration not stated) showed a pIC50 of 3.00.
On the same count and under the same terms, in the case of `Cc1cccnc1C[S+]([O-])c1nc2cscc2[nH]1` (configuration not stated) it was 4.60.
On to `[O-][S+](Cc1cc(Oc2ccc(F)cc2F)ccn1)c1nc2cscc2[nH]1` (configuration not stated), for which the inhibition in vivo at 0.5 mg/kg in the experiment listed under Rattus norvegicus stood at 56%. Also, the inhibition in vivo at 0.3 mg/kg in “animal or person” was determined as 74%. Besides, the pIC50 in the experiment listed under Oryctolagus cuniculus (Stomach) is 6.52.
Molecule `CC(=O)c1scc2[nH]c([S+]([O-])Cc3cc(OCC(F)(F)F)ccn3)nc12` (configuration not stated) gave a pIC50 in the experiment filed under Oryctolagus cuniculus (Stomach) of 4.49.
On to `[O-][S+](Cc1ccccn1)c1nc2c(-c3ccccc3)scc2[nH]1` (configuration not stated), for which the pIC50 in the experiment listed under Oryctolagus cuniculus (Stomach) was 4.51.
For the molecule `[O-][S+](Cc1cc(OCC(F)(F)C(F)(F)F)c(Cl)cn1)c1nc2cscc2[nH]1` (configuration not stated), the inhibition in vivo at 0.5 mg/kg in the experiment filed under Rattus norvegicus is 38%.
`COCCOc1ccnc(C[S+]([O-])c2nc3cscc3[nH]2)c1Cl` (configuration not stated): the inhibition in vivo at 0.5 mg/kg in the experiment listed under Rattus norvegicus was found to be 63%.
Regarding `[O-][S+](Cc1cc(OCc2ccc(F)cc2F)ccn1)c1nc2cscc2[nH]1` (configuration not stated), the inhibition in vivo at 0.5 mg/kg in the experiment listed under Rattus norvegicus came to 76%. Moreover, the pIC50 in the experiment filed under Oryctolagus cuniculus (Stomach) was 6.00.
In the case of `[O-][S+](Cc1nccc(OCC(F)(F)F)c1Cl)c1nc2cscc2[nH]1` (configuration not stated), the pIC50 in the experiment filed under Oryctolagus cuniculus (Stomach) was 3.00.
`COC(=O)c1sc2[nH]c([S+]([O-])Cc3ccccn3)nc2c1C(=O)OC` (configuration not stated) showed a pIC50 in the experiment listed under Oryctolagus cuniculus (Stomach) of 3.00.
`COc1ccnc(C[S+]([O-])c2nc3ccsc3[nH]2)c1` (configuration not stated) had a negative-log IC50 (pIC50) in the experiment filed under Oryctolagus cuniculus (Stomach) of 3.00.
Regarding `[O-][S+](Cc1cc(OCc2ccc(Cl)cc2)ccn1)c1nc2cscc2[nH]1` (configuration not stated), the inhibition in vivo at 0.5 mg/kg in the experiment filed under Rattus norvegicus was determined as 78%. In the experiment filed under Oryctolagus cuniculus (Stomach), the pIC50 is 6.40.
In the case of `CCCCOc1ccnc(C[S+]([O-])c2nc3cscc3[nH]2)c1` (configuration not stated), the inhibition in vivo at 0.5 mg/kg in the experiment listed under Rattus norvegicus is 81%. The inhibition in vivo at 0.3 mg/kg in the experiment “animal or person” was found to be 87%. This molecule had a pIC50 in the experiment listed under Oryctolagus cuniculus (Stomach) of 6.00.
`Cc1sc(C)c2[nH]c([S+]([O-])Cc3cc(OCC(F)(F)C(F)(F)F)ccn3)nc12` (configuration not stated): the pIC50 in the experiment filed under Oryctolagus cuniculus (Stomach) is 6.00.
Turning to `[O-][S+](Cc1cc(Oc2ccc(Cl)cc2)ccn1)c1nc2cscc2[nH]1` (configuration not stated), the inhibition in vivo at 0.5 mg/kg in the experiment filed under Rattus norvegicus was determined as 66%. In the experiment “animal or person”, the inhibition in vivo at 0.3 mg/kg was 76%. For the same molecule, in the experiment listed under Oryctolagus cuniculus (Stomach), the negative-log IC50 (pIC50) was 5.70.
On to `Cc1cnc(C[S+]([O-])c2nc3cscc3[nH]2)c(C)c1` (configuration not stated), for which the inhibition in vivo at 0.3 mg/kg in “animal or person” was found to be 91%. The molecule also showed a pIC50 in the experiment filed under Oryctolagus cuniculus (Stomach) of 4.30.
The molecule `CCOc1ccnc(C[S+]([O-])c2nc3cscc3[nH]2)c1Cl` (configuration not stated) showed a pIC50 in the experiment listed under Oryctolagus cuniculus (Stomach) of 5.70.
For the molecule `[O-][S+](Cc1cc(OC(F)F)ccn1)c1nc2cscc2[nH]1` (configuration not stated), the pIC50 in the experiment listed under Oryctolagus cuniculus is 3.00.
Regarding `COc1c(C)cnc(C[S+]([O-])c2nc3c(-c4ccccc4)scc3[nH]2)c1C` (configuration not stated), in the experiment listed under Rattus norvegicus, the inhibition in vivo at 0.5 mg/kg worked out at 46%. Further, the inhibition in vivo at 1 mg/kg in the experiment filed under Canis familiaris turned out to be 39%. In addition, in the experiment listed under Oryctolagus cuniculus (Stomach), the pIC50 was 5.38.
With `[O-][S+](Cc1cc(OCc2cc(Cl)cc(Cl)c2)ccn1)c1nc2cscc2[nH]1` (configuration not stated), the inhibition in vivo at 0.5 mg/kg in the experiment listed under Rattus norvegicus came to 64%. Moreover, the pIC50 in the experiment filed under Oryctolagus cuniculus (Stomach) was 5.96.
Consider `COc1ccc(C[S+]([O-])c2nc3cscc3[nH]2)nc1` (configuration not stated), for which the inhibition in vivo at 0.5 mg/kg in the experiment filed under Rattus norvegicus came out at 38%. In the experiment filed under Oryctolagus cuniculus (Stomach), the pIC50 is 3.00.
With `Cc1sc(C)c2[nH]c([S+]([O-])Cc3cc(OCC(F)(F)C(F)(F)C(F)(F)F)ccn3)nc12` (configuration not stated), the pIC50 in the experiment filed under Oryctolagus cuniculus (Stomach) is 4.59.
The same measure, in the same setting: next, `[O-][S+](Cc1ncccc1OC(F)F)c1nc2cscc2[nH]1` (configuration not stated): 3.00.
Turning to `[O-][S+](Cc1cc(Oc2ccc(Cl)c(Cl)c2)ccn1)c1nc2cscc2[nH]1` (configuration not stated), the inhibition in vivo at 0.5 mg/kg in the experiment filed under Rattus norvegicus is 49%. The inhibition in vivo at 0.3 mg/kg in the experiment “animal or person” was 62%. Besides, the pIC50 in the experiment filed under Oryctolagus cuniculus (Stomach) was 5.64.
Turning to `COc1c(C)cnc(C[S+]([O-])c2nc3cscc3[nH]2)c1Cl` (configuration not stated), in the experiment filed under Rattus norvegicus, the inhibition in vivo at 0.5 mg/kg turned out to be 43%. In “animal or person”, the inhibition in vivo at 0.3 mg/kg came to 52%.
The molecule `COc1c(C)cnc(C[S+]([O-])c2nc3cscc3[nH]2)c1C` (configuration not stated) gave a pIC50 in the experiment filed under Oryctolagus cuniculus (Stomach) of 3.00.
As to `[O-][S+](Cc1cc(OCc2cc(C(F)(F)F)cc(C(F)(F)F)c2)ccn1)c1nc2cscc2[nH]1` (configuration not stated), the inhibition in vivo at 0.5 mg/kg in the experiment listed under Rattus norvegicus amounted to 43%. Besides, in the experiment filed under Canis familiaris, the inhibition in vivo at 1 mg/kg was found to be 87%. Also, in the experiment filed under Oryctolagus cuniculus (Stomach), the pIC50 is 5.96.
`CCCOc1ccnc(C[S+]([O-])c2nc3cscc3[nH]2)c1Cl` (configuration not stated): in the experiment filed under Oryctolagus cuniculus (Stomach), the pIC50 was 5.52.
Turning to `Cc1ccc(C[S+]([O-])c2nc3c(C)sc(C)c3[nH]2)nc1` (configuration not stated), the inhibition in vivo at 0.5 mg/kg in the experiment filed under Rattus norvegicus was determined as 58%. Further, the inhibition in vivo at 0.3 mg/kg in the experiment “animal or person” was found to be 46%. In the experiment listed under Oryctolagus cuniculus (Stomach), this molecule gave a pIC50 of 5.22.
With `[O-][S+](Cc1ccc(Cl)cn1)c1nc2cscc2[nH]1` (configuration not stated), in the experiment filed under Rattus norvegicus, the inhibition in vivo at 0.5 mg/kg worked out at 26%. In the experiment filed under Oryctolagus cuniculus (Stomach), this molecule showed a pIC50 of 3.00.
On to `Cc1cccc(C[S+]([O-])c2nc3cscc3[nH]2)n1` (configuration not stated), for which the pIC50 in the experiment listed under Oryctolagus cuniculus (Stomach) is 3.52.
Regarding `COc1c(OCc2cc(C(F)(F)F)cc(C(F)(F)F)c2)ccnc1C[S+]([O-])c1nc2cscc2[nH]1` (configuration not stated), in the experiment listed under Rattus norvegicus, the inhibition in vivo at 0.5 mg/kg amounted to 65%. In the experiment filed under Oryctolagus cuniculus (Stomach), this molecule had a pIC50 of 6.30.
In the experiment listed under Oryctolagus cuniculus (Stomach), `COC(=O)c1sc2[nH]c([S+]([O-])Cc3cc(OC)ccn3)nc2c1C(=O)OC` (configuration not stated) gave a pIC50 of 3.00.
As for `COc1ccc(-c2scc3[nH]c([S+]([O-])Cc4ncc(C)c(OC)c4C)nc23)cc1` (configuration not stated), the inhibition in vivo at 0.5 mg/kg in the experiment listed under Rattus norvegicus turned out to be 24%. For the same molecule, the pIC50 in the experiment listed under Oryctolagus cuniculus (Stomach) is 5.52.
For `[O-][S+](Cc1ncccc1OCC(F)(F)F)c1nc2cscc2[nH]1` (configuration not stated), in that order: 23% and 3.92.
`[O-][S+](Cc1ncccc1F)c1nc2cscc2[nH]1` (configuration not stated): in the experiment listed under Oryctolagus cuniculus (Stomach), the negative-log IC50 (pIC50) was 3.00.
In the experiment listed under Oryctolagus cuniculus (Stomach), `[O-][S+](Cc1cc(OCc2ccccc2)ccn1)c1nc2cscc2[nH]1` (configuration not stated) showed a pIC50 of 6.30.
Take `COc1c(OCc2ccc(C(F)(F)F)cc2)ccnc1C[S+]([O-])c1nc2cscc2[nH]1` (configuration not stated): the inhibition in vivo at 0.5 mg/kg in the experiment filed under Rattus norvegicus amounted to 51%. In the experiment listed under Canis familiaris, the inhibition in vivo at 1 mg/kg is 91%. Besides, in the experiment listed under Oryctolagus cuniculus (Stomach), the negative-log IC50 (pIC50) is 6.30.
Take `[O-][S+](Cc1nccc(Oc2ccccc2)c1Cl)c1nc2cscc2[nH]1` (configuration not stated): in the experiment listed under Rattus norvegicus, the inhibition in vivo at 0.5 mg/kg was 0%. The molecule also gave a pIC50 in the experiment listed under Oryctolagus cuniculus (Stomach) of 4.21.
On to `COc1ccnc(C[S+]([O-])c2nc3cscc3[nH]2)c1OC` (configuration not stated), for which, in the experiment filed under Rattus norvegicus, the inhibition in vivo at 0.5 mg/kg came to 54%. Further, the inhibition in vivo at 0.3 mg/kg in “animal or person” was 82%. In the experiment listed under Oryctolagus cuniculus (Stomach), this molecule had a pIC50 of 5.44.
With `[O-][S+](Cc1cc(OCc2cc(F)cc(F)c2)ccn1)c1nc2cscc2[nH]1` (configuration not stated), in the experiment listed under Rattus norvegicus, the inhibition in vivo at 0.5 mg/kg worked out at 70%. Further, the inhibition in vivo at 1 mg/kg in the experiment filed under Canis familiaris turned out to be 96%. The molecule further gave a pIC50 in the experiment listed under Oryctolagus cuniculus (Stomach) of 6.15.
On to `CC(C)Oc1ccnc(C[S+]([O-])c2nc3cscc3[nH]2)c1Cl` (configuration not stated), for which the inhibition in vivo at 0.5 mg/kg in the experiment listed under Rattus norvegicus turned out to be 80%. In the experiment “animal or person”, the inhibition in vivo at 0.3 mg/kg was found to be 87%. The molecule further gave a pIC50 in the experiment listed under Oryctolagus cuniculus (Stomach) of 6.00.
As to `Cc1sc(C)c2[nH]c([S+]([O-])Cc3nccc(OC(C)C)c3Cl)nc12` (configuration not stated), the inhibition in vivo at 0.5 mg/kg in the experiment filed under Rattus norvegicus turned out to be 32%. This molecule also had a pIC50 in the experiment filed under Oryctolagus cuniculus (Stomach) of 5.60.
For the molecule `[O-][S+](Cc1cc(Oc2cccc(C(F)(F)F)c2)ccn1)c1nc2cscc2[nH]1` (configuration not stated), the inhibition in vivo at 0.5 mg/kg in the experiment listed under Rattus norvegicus came out at 64%. In the experiment listed under Canis familiaris, the inhibition in vivo at 1 mg/kg is 66%. The molecule further had a pIC50 in the experiment listed under Oryctolagus cuniculus (Stomach) of 5.66.
For the molecule `[O-][S+](Cc1ncccc1Cl)c1nc2cscc2[nH]1` (configuration not stated), the pIC50 in the experiment filed under Oryctolagus cuniculus (Stomach) is 6.00.
